Reference: PubChem BioAssay (NCI)
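Five compound concentrations were applied to cells in 96-well plates for 48 hours; endpoints were derived by simple linear interpolation of the resulting dose-response curve. At the GI50, growth is halved. At the TGI there is no net growth.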

Tests used:
Assay in all cases: NCI anticancer screen, dose series, 48 h
[1] = system: HCT-15 colon
[2] = system: MALME-3M melanoma
[3] = system: BT-549 breast
[4] = system: SNB-19 CNS
[5] = system: CCRF-CEM leukemia
[6] = system: SF-539 CNS
[7] = system: IGROV1 ovarian
[8] = system: ACHN renal
[9] = system: SW-620 colon
[10] = system: SNB-75 CNS

| SMILES | GI50 [1] [µM] | TGI [1] [µM] | GI50 [2] [µM] | TGI [2] [µM] | GI50 [3] [µM] | TGI [3] [µM] | GI50 [4] [µM] | TGI [4] [µM] | GI50 [5] [µM] | TGI [5] [µM] | GI50 [6] [µM] | TGI [6] [µM] | GI50 [7] [µM] | TGI [7] [µM] | GI50 [8] [µM] | TGI [8] [µM] | GI50 [9] [µM] | TGI [9] [µM] | GI50 [10] [µM] | TGI [10] [µM] |
| --- | --- | --- | --- | --- | --- | --- | --- | --- | --- | --- | --- | --- | --- | --- | --- | --- | --- | --- | --- | --- |
| [Cl][Hg][c]1cc[c]([Hg][Cl])o1 | 2.05 | 6.06 | 1.68 | 3.37 | 1.99 | 8.67 | 3.44 | 15.8 | 0.295 | 8.75 | 3.08 | 13.8 | 1.93 | 10.1 | 1.85 | 3.39 | 1.32 | 3.23 | 3.78 | 19.6 |
| CCOC(=O)C(Cc1ccc(CCCC(=O)NCCC(=O)Nc2ccc3nc(C)sc3c2)cc1)C(=O)OCC | 31.8 | > 100 | 28.3 | > 84.4 | 23.7 | 72.8 | > 100 | > 100 | 28.6 | > 89.3 | 42.5 | > 82.6 | 64.8 | > 100 | 18.2 | 34.3 | > 93.2 | > 100 | > 52.1 | > 100 |
| COc1cc(NS(C)(=O)=O)ccc1Nc1c2ccccc2nc2c1[nH]c1ccc(NC3OC(CO)C(O)C(O)C3O)cc12 (configuration not stated) |  | 2.14 |  | 1.43 |  | 5.69 |  | 1.46 |  | 3.12 |  | 0.0405 |  | 3.47 |  | 0.137 |  | 2.08 |  | 0.388 |
| O=C(CSc1nc2ccccc2nc1-c1ccccc1)Nc1ccc(F)cc1 | 48.7 | > 100 | 17.1 | 54 | 24.6 | 66.5 | 34.5 | > 100 | > 100 | > 100 | 18.6 | 35.4 | 42.4 | > 100 | 41.9 | > 100 | 61 | > 100 | 21.6 | 80.8 |
| O=C(O)Cc1cc(Cl)ccc1O |  | > 100 |  | > 100 |  | > 100 |  | > 100 |  | > 100 |  | > 100 |  | > 100 |  | > 100 |  | > 100 |  | > 100 |
| COc1cc2c3c(n(C)c(=O)c2cc1OC)-c1cc2c(cc1/C3=C\CN)OCO2 | 0.778 | 19.8 | 2.17 | > 40.4 |  | > 100 | < 0.0405 |  | 0.124 | 6.97 | 0.227 |  | 1.35 | > 100 | 0.037 | 0.625 |  | > 41.3 | 0.154 | 59.7 |
| CN1C(=O)N(C)C2C1NN=c1s/c(=C\c3ccc(Cl)cc3Cl)c(=O)n12 (configuration not stated) | 0.0882 | > 100 | 1.21 | > 81.6 | 0.264 | 12.8 | 0.339 | > 100 | 0.262 | > 100 | 0.131 | 3.25 | 0.326 | > 50.1 | 0.236 | > 100 | 0.109 | > 100 | 0.0274 | 2.32 |
| CS(=O)(=O)CCNCc1nc(-c2ccc3ncnc(Nc4ccc(OCc5cccc(C(F)(F)F)c5)cc4)c3c2)cs1 | > 25 | > 25 | 14 | > 25 | > 25 | > 25 | 11.1 | > 25 | > 25 | > 25 | > 25 | > 25 | 5.4 | > 25 | > 21.9 | > 25 | > 25 | > 25 | 4.86 | 15.7 |
| O=C(N[C@@H](c1ccc(Cl)c(Cl)c1)C1CNC1)c1ccc2cnccc2c1 | 1.6 | 12 | 0.138 | 0.7 | 0.301 | 1.67 | 0.649 | 10.7 | 0.189 | 14.6 | 0.0408 | 0.798 | 0.0324 | 4.69 | 0.904 | 12 | 0.41 | 12.3 | < 0.0125 | 0.264 |
| NCCNc1c2c(c(NCCN)c3[nH]ccc13)C(=O)c1ccccc1C2=O | 0.845 | 14.8 | 0.177 | 0.658 | 1.22 | 2.62 | 0.206 | 1.12 | < 0.01 | 0.163 | 0.0444 | 0.885 | 1.2 | > 100 | 0.124 | 0.706 | 0.216 | 1.09 | 0.317 | 0.945 |
| COc1cccc2c1C(=O)c1c(O)c3c(c(O)c1C2=O)C[C@](O)(C(=O)CO)C[C@H]3O[C@@H]1C[C@@H](NC(=O)CCCCCN(C)C2(c3ccc(F)cc3)CC3CCC2C3)[C@H](O)[C@@H](C)O1 (some centres not stated) | 2.19 | 9.11 | 7.85 | 16.9 | 5.3 | 14.2 | 6.48 | 14.8 | 1.13 | 3.92 | 3.67 | 10.3 | 6.59 | 14.8 | 1.75 | 6.66 | 0.76 | 1.85 | 3.28 | 11.2 |
| CC(=O)OC12C=CC(=O)N1c1ccccc1C(=O)O2 (configuration not stated) |  | > 100 |  | > 85.8 | > 100 | > 100 |  | > 100 |  | > 100 |  | > 100 |  | > 100 |  | > 100 |  | > 100 |  | > 100 |
| Nc1c(C(=O)Nc2ccncc2)sc2nc3c(cc12)CCCCCCCC3 | 0.962 | 1.8 | 0.87 | 1.66 | 0.838 | 1.6 | 0.96 | 1.76 | 1.3 | 3.26 | 0.878 | 1.6 | 0.933 | 1.82 | 0.889 | 1.6 | 0.957 | 1.88 | 0.819 | 1.53 |
| CC[C@H]1[C@@H]2C=C[C@@H]3[C@H]4C/C=C\C(=O)NCCC[C@@H]5NC(=O)/C(=C(O)/C=C/[C@@H]4C[C@@H]3[C@H]2C[C@H]1C)C5=O | 0.425 | 1.86 | 1.39 | 2.83 | 1.29 | 2.74 | 1.04 | 2.42 | 1.59 | 4.29 | 1.3 | 2.72 | 0.252 | 0.756 | 0.42 | 1.57 | 2.46 | 7.59 | 0.415 | 1.58 |
| Oc1cccnc1[Se] |  | > 100 |  | > 100 |  | > 100 |  | > 100 |  | > 100 |  | > 100 |  | > 100 |  | > 100 |  | > 100 |  | > 100 |
| CCCN1C(=O)N(CCC)C2C1NC(=S)N2/N=C/C=C/c1ccccc1OC (configuration not stated) | 0.537 | > 100 | 0.694 | 82.1 | 2.77 | 32.9 | 1.66 | > 100 | 0.448 | > 100 | 0.33 | 2.31 | 0.831 | > 100 | 0.631 | 81.1 | 0.416 | > 100 | 0.233 | 2.3 |
| C=C(C)[C@@H]1CC[C@]2(C)[C@H](CC=C3[C@@H]4CC(C)(C)CC[C@]4(C(N)=O)CC[C@]32C)[C@@]1(C)CCC#N | 3.14 | > 100 | 2.24 | 5.91 | 2.09 | 5.53 | 4.05 | > 100 | 3.02 | > 100 | 3.04 | 13.6 | 3.92 | > 100 | 3.01 | 51.2 | 3.21 | 30.1 | 2.33 | 9.71 |
| O=C(CC1(O)C(=O)N(Cc2ccccc2)c2ccc(F)cc21)c1ccc(C(=O)NCC2CCC3(CC2)OOC2(CCCCC2)OO3)cc1 (configuration not stated) | 0.867 | 3.2 | 0.226 | 0.54 | 1.88 | 4.28 | 3.44 | 43.5 | 0.274 | 0.924 | 0.21 | 0.541 | 0.236 | 0.62 | 0.179 | 0.363 | 1.84 | 4.3 | 1.48 | 3.19 |
| C=CCCCCOc1ccccc1-c1cnc(OCCCCC=C)n1C | 4 | 16.3 | 3.63 | 16.4 | 4.15 | 18.7 | 7.39 | 38.1 | 4.27 | 20.4 | 5.82 | 19.7 | 4.64 | 20.1 | 6.8 | 38.9 | 2.97 | 11 | 2.52 | 11.6 |
| COc1cc2c(c(OC)c1OC)-c1ccc(SC)c(=O)cc1C(NC=O)CC2 (configuration not stated) |  | > 37.4 |  | > 83 |  | > 100 |  | > 100 |  | > 74.8 |  | < 0.0464 |  | > 85.5 |  | > 100 |  | > 100 |  | > 21.5 |
